assay: recombinant UMI read abundance after kanamycin selection (control-corrected) (log10(CPM+1)); higher = more efficient recombination; extreme values may be limits of the assay; sequences stand for … in AGTGCAGAGAAAATCGGCCAGTTTTCTCTGCCTGCAGTCCGCATGCCGTGGGACCCCTTGGGTTCTAACCTGTTGCCTAGATTTATGCAGCGGACTGCCTTTCTCCCAAAGTGATAAACCGG…AGGTTGGTTTCACT; site = the 11-nt donor
Method in brief: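 For the IS621 bridge recombinase, a pooled Escherichia coli screen tested donor and donor-binding-loop pairs. Cells received the pair library together with a target plasmid encoding a fixed target and T7-inducible recombinase, then went onto IPTG (0.07 mM) plus kanamycin or unselected plates in duplicate. After PCR across the donor–target junction and sequencing, recombinant UMI counts were normalized to CPM, averaged, and scaled by control-derived factors. Each value is given as log10(CPM+1).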
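Further: IS621 bridge recombinase in Escherichia coli cells against a fixed T5 target plasmid.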

Question: For “ACAGTCACATGGACCGGTTTTCCCGGTAATCCGTATTTGCA (site ACAGTATCTTG)”, which “recombinant UMI read abundance (log10)” value is on record?
Answer: 1.84

Question: For “ACAGTCACATGGACCGGTTTTCCCGGTAATCCGTATTTGCA (site ACAGTCACTTG)”, which “recombinant UMI read abundance (log10)” value is on record?
Answer: 2.58

Question: Which “recombinant UMI read abundance (log10)” value does the source give for “ACAGTCTCATGGACCGGTTTTCCCGGTAATCCGTATTTGCA (site ACAGTATCTTG)” here?
Answer: 2.26

Question: With “ACAGTCTCATGGACCGGTTTTCCCGGTAATCCGTATTTGCA (site ACAGTCTCTTG)” as the sequence, how does the “recombinant UMI read abundance (log10)” value read?
Answer: 3.22

Question: For “ACAGTCTCATGGACCGGTTTTCCCGGTAATCCGTATTTGCA (site ACAGTGTCTTG)”, which “recombinant UMI read abundance (log10)” value is on record?
Answer: 2.28

Question: Which “recombinant UMI read abundance (log10)” value does the source give for “ACAGTCTCATGGACCGGTTTTCCCGGTAATCCGTATTTGCA (site ACAGTTTCTTG)” here?
Answer: 0.155

Question: Which “recombinant UMI read abundance (log10)” value does the source give for “ACAGTCTCATGGACCGGTTTTCCCGGTAATCCGTATTTGCT (site ACAGTATCTTG)” here?
Answer: 0

Question: For “ACAGTCTCATGGACCGGTTTTCCCGGTAATCCGTATTTGCT (site ACAGTCTCTAG)”, which “recombinant UMI read abundance (log10)” value is on record?
Answer: 2.94

Question: With “ACAGTGCCATGGACCGGTTTTCCCGGTAATCCGTATTTGAG (site ACAGTGCCTCT)” as the sequence, how does the “recombinant UMI read abundance (log10)” value read?
Answer: 0.285

Question: With “ACAGTGCCATGGACCGGTTTTCCCGGTAATCCGTATTTGCA (site ACAGTATCTTG)” as the sequence, how does the “recombinant UMI read abundance (log10)” value read?
Answer: 0.852

Question: Which “recombinant UMI read abundance (log10)” value does the source give for “ACAGTGCCATGGACCGGTTTTCCCGGTAATCCGTATTTGCA (site ACAGTGCCTTG)” here?
Answer: 1.38

Question: For “ACAGTGTCATGGACCGGTTTTCCCGGTAATCCGTATTTGCA (site ACAGTATCTTG)”, which “recombinant UMI read abundance (log10)” value is on record?
Answer: 3.35

Question: Which “recombinant UMI read abundance (log10)” value does the source give for “ACAGTGTCATGGACCGGTTTTCCCGGTAATCCGTATTTGCA (site ACAGTCTCTTG)” here?
Answer: 2

Question: For “ACAGTGTCATGGACCGGTTTTCCCGGTAATCCGTATTTGCA (site ACAGTGTCTTG)”, which “recombinant UMI read abundance (log10)” value is on record?
Answer: 3.29

Question: With “ACAGTGTCATGGACCGGTTTTCCCGGTAATCCGTATTTGCA (site ACAGTTTCTTG)” as the sequence, how does the “recombinant UMI read abundance (log10)” value read?
Answer: 0.818

Question: Which “recombinant UMI read abundance (log10)” value does the source give for “ACAGTTTCATGGACCGGTTTTCCCGGTAATCCGTATTTGCG (site ACAGTATCTTG)” here?
Answer: 0

Question: For “ACAGTTTCATGGACCGGTTTTCCCGGTAATCCGTATTTGCG (site ACAGTTTCTCG)”, which “recombinant UMI read abundance (log10)” value is on record?
Answer: 2.64

Question: With “ACATACACATGGACCGGTTTTCCCGGTAATCCGTATTTGAG (site ACATACACTCT)” as the sequence, how does the “recombinant UMI read abundance (log10)” value read?
Answer: 1.79

Question: With “ACATACTCATGGACCGGTTTTCCCGGTAATCCGTATTTGCA (site ACATACTCTTG)” as the sequence, how does the “recombinant UMI read abundance (log10)” value read?
Answer: 2.8

Question: For “ACATACTCATGGACCGGTTTTCCCGGTAATCCGTATTTGCA (site CCATACTCTTG)”, which “recombinant UMI read abundance (log10)” value is on record?
Answer: 2.69

Question: With “ACATACTCATGGACCGGTTTTCCCGGTAATCCGTATTTGCA (site GCATACTCTTG)” as the sequence, how does the “recombinant UMI read abundance (log10)” value read?
Answer: 2.66

Question: For “ACATACTCATGGACCGGTTTTCCCGGTAATCCGTATTTGCA (site TCATACTCTTG)”, which “recombinant UMI read abundance (log10)” value is on record?
Answer: 2.8

Question: For “ACATCTACATGGACCGGTTTTCCCGGTAATCCGTATTTGTC (site ACATCTACTAA)”, which “recombinant UMI read abundance (log10)” value is on record?
Answer: 0.0236

Question: With “ACATCTACATGGACCGGTTTTCCCGGTAATCCGTATTTGTC (site ACATCTACTCA)” as the sequence, how does the “recombinant UMI read abundance (log10)” value read?
Answer: 0.0109

Question: For “ACATCTACATGGACCGGTTTTCCCGGTAATCCGTATTTGTC (site ACATCTACTGA)”, which “recombinant UMI read abundance (log10)” value is on record?
Answer: 0

Question: Which “recombinant UMI read abundance (log10)” value does the source give for “ACATCTACATGGACCGGTTTTCCCGGTAATCCGTATTTGTC (site ACATCTACTTA)” here?
Answer: 0.0124

Question: For “ACATCTACATGGACCGGTTTTCCCGGTAATCCGTATTTGTT (site ACATCTACTAA)”, which “recombinant UMI read abundance (log10)” value is on record?
Answer: 0.142

Question: With “ACATCTACATGGACCGGTTTTCCCGGTAATCCGTATTTGTT (site ACATCTACTCA)” as the sequence, how does the “recombinant UMI read abundance (log10)” value read?
Answer: 0.0105

Question: Which “recombinant UMI read abundance (log10)” value does the source give for “ACATCTACATGGACCGGTTTTCCCGGTAATCCGTATTTGTT (site ACATCTACTGA)” here?
Answer: 0

Question: Which “recombinant UMI read abundance (log10)” value does the source give for “ACATCTACATGGACCGGTTTTCCCGGTAATCCGTATTTGTT (site ACATCTACTTA)” here?
Answer: 0.0357

Question: With “ACATGCACATGGACCGGTTTTCCCGGTAATCCGTATTTGTC (site ACATGCACTGA)” as the sequence, how does the “recombinant UMI read abundance (log10)” value read?
Answer: 2.06

Question: Which “recombinant UMI read abundance (log10)” value does the source give for “ACATGCGCATGGACCGGTTTTCCCGGTAATCCGTATTTGAT (site ACATGCGCTAT)” here?
Answer: 2.22

Question: Which “recombinant UMI read abundance (log10)” value does the source give for “ACATGTACATGGACCGGTTTTCCCGGTAATCCGTATTTGTG (site ACATATACTCA)” here?
Answer: 0.616

Question: Which “recombinant UMI read abundance (log10)” value does the source give for “ACATGTACATGGACCGGTTTTCCCGGTAATCCGTATTTGTG (site ACATCTACTCA)” here?
Answer: 0.00614

Question: With “ACATGTACATGGACCGGTTTTCCCGGTAATCCGTATTTGTG (site ACATGTACTCA)” as the sequence, how does the “recombinant UMI read abundance (log10)” value read?
Answer: 1.07

Question: With “ACATGTACATGGACCGGTTTTCCCGGTAATCCGTATTTGTG (site ACATTTACTCA)” as the sequence, how does the “recombinant UMI read abundance (log10)” value read?
Answer: 0

Question: Which “recombinant UMI read abundance (log10)” value does the source give for “ACATTGTCATGGACCGGTTTTCCCGGTAATCCGTATTTGCA (site ACAGTATCTTG)” here?
Answer: 1.37

Source: the supplement of paper PMC11208160
